From patent US11497212B2, “Substituted thiophenyl uracils, salts thereof and the use thereof as herbicidal agents” (Syngenta Crop Protection AG, priority 2017, dated 2022)

Tests used:
Format in all cases: in vivo
Abutilon theophrasti [1] = assay: Herbicidal action post-emergence (greenhouse pot trial); conditions: application rate 20 g/ha, scored visually after about 3 weeks vs untreated controls
Outline: (§1)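 Sowing in sandy loam, then 2–3 weeks of controlled greenhouse growth. Next, one-leaf-stage plants received a foliar spray of the WP- or EC-formulated compound with 0.5% additive (600 L/ha water, application rate of 80 g/ha or below). Finally, after about 3 weeks under optimal conditions, effect was judged by eye against controls.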

Pharbitis purpurea = assay: as above; conditions: application rate 20 g/ha
Outline: as §1

Amaranthus retroflexus [2] = assay: as above; conditions: application rate 20 g/ha, scored visually after about 3 weeks vs untreated controls
Outline: as §1

Veronica persica = assay: as above; conditions: application rate 20 g/ha
Outline: as §1

Glycine max = assay: Crop compatibility post-emergence (greenhouse pot trial)
Outline: (§2)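 Greenhouse pot trial: sandy loam, sown seeds, treatment at one-leaf stage 2–3 wk after sowing. Spray: aqueous WP/EC preparation, 0.5% additive, 600 L/ha. Readout: visual % effect after ~3 wk relative to untreated plants.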

Triticum aestivum = assay: as above
Outline: as §2

Oryza sativa = assay: as above; conditions: application rate 20 g/ha
Outline: as §2

Zea mays [3] = assay: as above
Outline: as §2

Viola tricolor [4] = assay: Herbicidal action post-emergence (greenhouse pot trial); conditions: application rate 20 g/ha
Outline: as §1

Matricaria inodora [5] = assay: as above; conditions: application rate 20 g/ha, scored visually after about 3 weeks vs untreated controls
Outline: as §1

Polygonum convolvulus = assay: as above; conditions: application rate 20 g/ha, scored visually after about 3 weeks vs untreated controls
Outline: as §1

Viola tricolor [6] = assay: Herbicidal action pre-emergence (greenhouse pot trial); conditions: application rate 80 g/ha, scored after about 3 weeks
Excerpt: (§3) Seeds of mono- and dicotyledonous weeds and crop plants were laid out in plastic or organic plant pots and covered with soil. The compounds of the invention formulated in the form of wettable powders (WP) or emulsion concentrates (EC) were then applied to the surface of the covering soil as an aqueous suspension or emulsion with addition of 0.5% additive at a water application rate equivalent to 600 L/ha. After the treatment, the pots were placed in a greenhouse and kept under good growth conditions for the test plants. After about 3 weeks, the efficacy of the preparations was scored visually as a percentage by comparison with untreated controls. For example, 100% efficacy=plants have died, 0% efficacy=like control plants. Tables B1 to B16 below show the efficacies of selected compounds of the general formula (I) according to tables I.1 to I.60 on various harmful plants and an application rate corresponding to 320 g/ha or lower that were obtained by the aforementioned trial method.

Matricaria inodora [7] = assay: as above; conditions: application rate 80 g/ha, scored after about 3 weeks
Excerpt: as §3

Abutilon theophrasti [8] = assay: as above; conditions: application rate 80 g/ha, scored after about 3 weeks
Excerpt: as §3

Amaranthus retroflexus [9] = assay: as above; conditions: application rate 80 g/ha, scored after about 3 weeks
Excerpt: as §3

Zea mays [10] = assay: Crop compatibility pre-emergence (greenhouse pot trial); conditions: application rate 80 g/ha, effect vs untreated controls
Excerpt: as §3, with “plants.” for “plants. Tables B1 to B16 below show the efficacies of selected compounds of the general formula (I) according to tables I.1 to I.60 on various harmful plants and an application rate corresponding to 320 g/ha or lower that were obtained by the aforementioned trial method.”
Crop compatibilities were also scored correspondingly.
The effects observed are reported here on selected crop plants by comparison with the untreated controls (values in %).

Echinochloa crus-galli = assay: Herbicidal action post-emergence (greenhouse pot trial); conditions: application rate 20 g/ha, scored visually after about 3 weeks vs untreated controls
Outline: as §1

Hordeum murinum = assay: as above; conditions: application rate 20 g/ha, scored visually after about 3 weeks vs untreated controls
Outline: as §1

Setaria viridis = assay: as above; conditions: application rate 20 g/ha, scored visually after about 3 weeks vs untreated controls
Outline: as §1

Digitaria sanguinalis = assay: as above; conditions: application rate 20 g/ha
Outline: as §1

Stellaria media = assay: as above; conditions: application rate 20 g/ha, scored visually after about 3 weeks vs untreated controls
Outline: as §1

Alopecurus myosuroides = assay: as above; conditions: application rate 20 g/ha, scored visually after about 3 weeks vs untreated controls
Outline: as §1

Compound	Abutilon theophrasti (Efficacy in %) (Abutilon theophrasti [1]) [%]	Pharbitis purpurea (Efficacy in %) (Pharbitis purpurea) [%]	Amaranthus retroflexus (Efficacy in %) (Amaranthus retroflexus [2]) [%]	Veronica persica (Efficacy in %) (Veronica persica) [%]	Oryza sativa (Efficacy in %) (Oryza sativa) [%]	Zea mays (Efficacy in %) (Zea mays [3]; application rate 20 g/ha) [%]	Viola tricolor (Efficacy in %) (Viola tricolor [4]) [%]	Matricaria inodora (Efficacy in %) (Matricaria inodora [5]) [%]	Polygonum convolvulus (Efficacy in %) (Polygonum convolvulus) [%]	Glycine max (Efficacy in %) (Glycine max; application rate 5 g/ha) [%]	Triticum aestivum (Efficacy in %) (Triticum aestivum; application rate 5 g/ha) [%]	Echinochloa crus-galli (Efficacy in %) (Echinochloa crus-galli) [%]	Setaria viridis (Efficacy in %) (Setaria viridis) [%]	Stellaria media (Efficacy in %) (Stellaria media) [%]	also measured
Cc1c(C(F)(F)F)n(C)c(=O)n(-c2cc(SC(CC(C)C)C(=O)OCC3CCCO3)c(Cl)cc2F)c1=O (stereo not shown) [I.14-71]	100	100	100	100	0	0	–	–	–	–	–	–	–	–	Glycine max (Efficacy in %) (Glycine max; application rate 20 g/ha): 0%; Triticum aestivum (Efficacy in %) (Triticum aestivum; application rate 20 g/ha): 0%
CC(Sc1cc(-n2c(=O)cc(C(F)(F)F)n(C)c2=O)c(F)cc1Cl)C(=O)NCC1CCOC1(C)C (stereo not shown) [I.1-227]	100	100	100	100	0	20	80	100	100	20	10	–	–	–	Viola tricolor (Efficacy in %) (Viola tricolor [6]): 80%; Matricaria inodora (Efficacy in %) (Matricaria inodora [7]): 90%; Abutilon theophrasti (Efficacy in %) (Abutilon theophrasti [8]): 100%; Amaranthus retroflexus (Efficacy in %) (Amaranthus retroflexus [9]): 100%; Zea mays (Efficacy in %) (Zea mays [10]): 0%
CC(Sc1cc(-n2c(=O)cc(C(F)(F)F)n(C)c2=O)c(F)cc1Cl)C(=O)OCCCSC(F)(F)F (stereo not shown) [I.1-48]	100	100	100	100	–	–	100	100	100	–	10	100	100	100	Hordeum murinum (Efficacy in %) (Hordeum murinum): 80%; Digitaria sanguinalis (Efficacy in %) (Digitaria sanguinalis): 100%
CCC(Sc1cc(-n2c(=O)c(C)c(C(F)(F)F)n(C)c2=O)c(F)cc1Cl)C(=O)OCC1CCCCO1 (stereo not shown) [I.12-91]	100	100	100	100	0	–	100	80	80	0	0	100	80	100	Alopecurus myosuroides (Efficacy in %) (Alopecurus myosuroides): 80%; Zea mays (Efficacy in %) (Zea mays [3]; application rate 5 g/ha): 0%
